Laboratory results reported in patent US20090325803A1, “CONTROL OF AQUATIC WEEDS USING SELECTED HERBICIDAL COMBINATIONS WITH A SYNTHETIC AUXIN” (priority 2008, published 2009).

Experiments:
Type in all cases: in vivo
[1] = tested on: Eurasian watermilfoil (EWM); assay: Root and shoot dry weights of Eurasian watermilfoil after treatment with triclopyr, 2,4-d, diquat alone and in combination, harvest at 32 d (Example 3); conditions: single herbicide at 50 ppb, vs untreated controls
Excerpt: Apical sections (12 to 15 cm in length) of Eurasian watermilfoil (EWM) were planted into small pots (13.5 cm length×3.75 cm diameter) containing Wallace Farm® (topsoil amended with 14-14-14 slow release Osmocote® fertilizer (˜2.5 g Osmocote/kg soil). Approximately 5 to 7 cm of the apical section extended above the sediment at planting, and a sand cap was placed over the potting soil (˜2 cm deep). Plants were then transferred to a 12 L acrylic tanks filled with well water. Plants were allowed to grow to two-thirds the height of tanks (approximately 7 d) before the following treatment was initiated in triple replicate: 1) Untreated controls, 2) triclopyr 50 ppb, 3) 2,4-d 50 ppb, 4) diquat 50 ppb, 5) diquat 50 ppb+triclopyr 50 ppb, 6) diquat 50 ppb+2,4-d 50 ppb. Plants were harvested at 32 d. At harvest, plants were rinsed free of algae, roots and shoots were separated, and placed in paper sacks in a drying oven for 4 d at 70° C. temperature, and dry weights were determined (FIG. 3.1).

[2] = tested on: Eurasian watermilfoil (EWM); assay: Root and shoot dry weights of Eurasian watermilfoil after 40 d exposure to triclopyr and fluridone, 12 L tanks (Example 2); conditions: triclopyr 75 ppb alone
Excerpt: Apical sections (12 to 15 cm in length) of Eurasian watennilfoil (EWM) were planted into small pots (13.5 cm length×3.75 cm diameter) containing Wallace Farm® topsoil amended with 14-14-14 slow release Osmocote® fertilizer (˜2.5 g Osmocote/kg soil). Approximately 5 to 7 cm of the apical section extended above the sediment at planting, and a sand cap was placed over the potting soil (˜2 cm deep). Plants were then transferred to a 12 L acrylic tanks filled with well water. Plants were allowed to grow for 7 d before the following treatments were initiated in triple replicate: 1) fluridone at 10 ppb, 2) triclopyr at 75 ppb, 3) fluridone (10 ppb) plus triclopyr (75 ppb), 4) untreated controls. Plants were harvested at 40 d. At harvest, plants were rinsed free of algae, roots and shoots were separated, and placed in paper sacks in a drying oven for 4 d at 70° C. temperature, and dry weights were determined (FIG. 2.1).

[3] = tested on: Eurasian watermilfoil (EWM); assay: GR50 and Isobole analysis of triclopyr and 2,4-d alone and in combination, above ground biomass 33 days after treatment (Example 4); conditions: total herbicide concentration, regression of 30-120 ppb treatments, n=3
Excerpt: Eurasian watermilfoil (EWM) was collected from ponds in Seymour, Ind. Single apical meristems were planted into small pots (13.5 cm length×3.75 cm diameter) containing Wallace Farm® (topsoil amended with 14-14-14 slow release Osmocote® fertilizer (˜2.5 g Osmocote/kg soil). Approximately 5 to 7 cm of the apical section extended above the sediment at planting, and a sand cap was placed over the potting soil (˜2 cm deep). Plants were then transferred to a 12 L acrylic tanks filled with well water. Tanks were maintained in a growth room with 14:10 h photoperiod at 26° C. Plants were allowed to establish growth for 26 days before they were treated.
Pretreatment above ground biomass was harvested the day of the treatment and dry weights were determined. Treatments were replicated three times in a completely randomized design. […]
All above ground biomass was harvested 33 days after treatment. Biomass was dried to constant moisture at 70° C. for 3 d, and dry weights were determined. Data were subjected to regression analysis using Sigma Plot software, and a GR50 was determined (concentration causing a 50% reduction in dry weight) for each treatment. […]

| SMILES | reduction in root biomass [1] | reduction of below ground biomass ([2]; root dry weight) | reduction of above ground biomass ([2]; shoot dry weight) | GR50 (concentration causing a 50% reduction in dry weight) [3] |
| --- | --- | --- | --- | --- |
| c1cc[n+]2c(c1)-c1cccc[n+]1CC2 [diquat, 1,1′-ethylene 2,2′-dipyridylium dibromide] | 86% |  |  |  |
| O=C(O)COc1nc(Cl)c(Cl)cc1Cl [triclopyr, 3,5,6-trichloro-2-pyridyloxyacetic acid] | 90% | 74% | 96% | 63.0 ppb |
| O=C(O)COc1ccc(Cl)cc1Cl [2,4-d, (2,4-dichlorophenoxy) acetic acid] | 66% |  |  | 162.6 ppb |
